Eleven compounds from PubChem BioAssay (NCI) can be followed below.

Values joined by “and” are separate entries in the source; they are usually repeats but may differ in a detail not shown here. Identical values can stand only once.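 96-well plates; 48 h exposure; 5 concentrations. Endpoints by linear interpolation between flanking doses. Not reached: highest tested concentration assigned. At the GI50, growth is halved. The concentration for full growth arrest is given as TGI.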

Among the test systems are 786-0 renal; COLO 205 colon; HCC-2998 colon; HCT-116 colon; HCT-15 colon; NCI-H460 lung; SF-268 CNS; SK-MEL-28 melanoma; SN12C renal; U251 CNS.
What all share (test): NCI anticancer screen, dose series, 48 h

In the case of `O=C1/C(=C/c2ccc(Cl)cc2)CN(Cc2cn(CCCNc3ccnc4cc(Cl)ccc34)nn2)C/C1=C\c1ccc(Cl)cc1`, the GI50 in the assay with 786-0 renal is 0.754 µM; with COLO 205 colon, 0.565 µM; with HCC-2998 colon, 0.273 µM; in the assay with HCT-116 colon it was 0.305 µM; in the assay with HCT-15 colon, 0.283 µM; with NCI-H460 lung, 0.429 µM. The GI50 in the assay on SF-268 CNS was 0.54 µM; in the assay with SK-MEL-28 melanoma, 1.82 µM; in the assay on SN12C renal, 0.96 µM; with U251 CNS, 0.269 µM. Further, the TGI with 786-0 renal came out at 2.06 µM; with COLO 205 colon, 1.8 µM; in the assay on HCC-2998 colon it was 0.712 µM; in the assay with HCT-116 colon it was 0.833 µM; in the assay with HCT-15 colon, 0.926 µM; in the assay with NCI-H460 lung it was 2.06 µM. Besides, the TGI with SF-268 CNS came out at 2.01 µM; in the assay on SK-MEL-28 melanoma it was 3.41 µM; in the assay on SN12C renal, 2.77 µM; in the assay with U251 CNS, 0.9 µM.
As for `COc1ccc(-c2nc3sccn3c2-c2ccnc(NCCNS(=O)(=O)c3ccc(C(F)(F)F)cc3)n2)cc1`, the GI50 in the assay on 786-0 renal is 0.641 µM; with COLO 205 colon, 3.29 µM; in the assay on HCC-2998 colon it was 4.6 µM; in the assay on HCT-116 colon, 0.729 µM; with HCT-15 colon it was 2.59 µM; in the assay on NCI-H460 lung, 2 µM. The GI50 in the assay on SF-268 CNS was 1.41 µM; in the assay on SK-MEL-28 melanoma it was 3.68 µM; in the assay on SN12C renal, 0.688 µM; in the assay on U251 CNS, 4.45 µM. Moreover, the TGI is 11.3 µM in the assay with 786-0 renal; more than 100 µM in the assay with COLO 205 colon; more than 100 µM in the assay on HCC-2998 colon; 4.61 µM with HCT-116 colon; more than 100 µM with HCT-15 colon; 11.6 µM in the assay with NCI-H460 lung. The TGI with SF-268 CNS was 50.9 µM; in the assay with SK-MEL-28 melanoma it was 55.5 µM; with SN12C renal it was 8.38 µM; in the assay on U251 CNS, more than 100 µM.
`CC(C)[C@@]12C[C@@H](OC(=O)COC(=O)c3ccccc3)[C@@](C)(O1)[C@@H]1CC[C@@H](C)[C@H]1[C@@H]2OC(=O)/C=C/c1ccccc1`: the GI50 in the assay on 786-0 renal was 3.95 µM; with COLO 205 colon, more than 100 µM; in the assay with HCC-2998 colon, more than 100 µM; in the assay on HCT-116 colon, more than 100 µM; with HCT-15 colon, more than 89 µM; with NCI-H460 lung, more than 100 µM. Besides, the figures for the GI50 with SK-MEL-28 melanoma, in the assay on SN12C renal and with U251 CNS were more than 100 µM, 7.35 µM and more than 100 µM, respectively. The TGI in the assay on 786-0 renal, in the assay on COLO 205 colon, with HCC-2998 colon, in the assay with HCT-116 colon, in the assay with HCT-15 colon and in the assay on NCI-H460 lung was more than 100 µM each time. In addition, the TGI in the assay on SF-268 CNS, in the assay with SK-MEL-28 melanoma, in the assay with SN12C renal and in the assay on U251 CNS was more than 100 µM in each case.
With `CCOC(=O)C(C(=O)OCC)=C1C=C(c2ccccc2)c2ccccc21`, the TGI in the assay on 786-0 renal, in the assay with COLO 205 colon, in the assay on HCC-2998 colon, in the assay on HCT-116 colon, with HCT-15 colon and in the assay on NCI-H460 lung was more than 100 µM in each case. Further, the TGI in the assay on SF-268 CNS, with SK-MEL-28 melanoma, with SN12C renal and in the assay with U251 CNS was more than 100 µM throughout.
In the case of `CC(=O)Oc1ccc(C2OC(c3ccc4ccccc4c3OC(C)=O)=NN2C(C)=O)c(OC(C)=O)c1` (stereo not drawn), the GI50 in the assay on 786-0 renal was 0.479 µM; in the assay with COLO 205 colon it was 0.377 µM; in the assay with HCC-2998 colon, 0.427 µM; with HCT-116 colon, 0.328 µM; with HCT-15 colon it was 0.294 µM; with NCI-H460 lung, 0.346 µM. Further, the GI50 was 0.31 µM in the assay on SF-268 CNS, 0.559 µM in the assay on SK-MEL-28 melanoma, 0.512 µM with SN12C renal and 0.316 µM in the assay with U251 CNS. The TGI was more than 77.2 µM in the assay on 786-0 renal; more than 32.3 µM in the assay on COLO 205 colon; 29 µM in the assay with HCC-2998 colon; more than 40.2 µM with HCT-116 colon; more than 68 µM in the assay with HCT-15 colon; more than 36 µM with NCI-H460 lung. Also, the TGI in the assay with SF-268 CNS is more than 46 µM; with SK-MEL-28 melanoma, more than 53.9 µM; with SN12C renal, more than 70.6 µM; with U251 CNS, 30.4 µM.
With `CC(=O)[O-].CC(=O)[O-].O=C([CH-]C(=O)c1ccccc1)c1ccccc1.[Nd+3].[OH3+]`, the GI50 with 786-0 renal was 19.4 µM; in the assay on COLO 205 colon, 27.9 µM; in the assay on HCC-2998 colon, 25 µM; in the assay on HCT-116 colon, 19.7 µM; in the assay with HCT-15 colon, 19.4 µM; in the assay on NCI-H460 lung, 16.7 µM. Also, the GI50 is 16.8 µM with SF-268 CNS, 23.3 µM with SK-MEL-28 melanoma, 23.5 µM with SN12C renal and 16.7 µM with U251 CNS. Further, the TGI is 63.9 µM in the assay with 786-0 renal; more than 100 µM with COLO 205 colon; more than 100 µM with HCC-2998 colon; more than 100 µM in the assay on HCT-116 colon; more than 100 µM with HCT-15 colon; more than 100 µM in the assay with NCI-H460 lung. Besides, the TGI was more than 100 µM with SF-268 CNS, 81.2 µM in the assay with SK-MEL-28 melanoma, 92.3 µM in the assay with SN12C renal and more than 100 µM in the assay on U251 CNS.
For the compound `O=S(=O)(NCCNc1nccc(-c2c(-c3ccc(F)cc3)nc3sccn23)n1)c1ccc(O)cc1`, the GI50 in the assay on 786-0 renal was 4.26 µM; in the assay on COLO 205 colon, 2 µM; in the assay with HCC-2998 colon it was 15.5 µM; in the assay with HCT-116 colon, 1.43 µM; in the assay with HCT-15 colon it was 5 µM; in the assay with NCI-H460 lung, 0.845 µM. The GI50 in the assay with SF-268 CNS was 3.99 µM; in the assay with SK-MEL-28 melanoma it was 4.4 µM; with SN12C renal, 3.9 µM; with U251 CNS, 1.36 µM. Also, the TGI in the assay with 786-0 renal is 39.7 µM; in the assay on COLO 205 colon it was 14.8 µM; in the assay with HCC-2998 colon it was 51.1 µM; with HCT-116 colon, 22.1 µM; in the assay with HCT-15 colon, more than 100 µM; in the assay on NCI-H460 lung, 27.8 µM. Also, the TGI is 56.2 µM in the assay on SF-268 CNS, 37.8 µM in the assay with SK-MEL-28 melanoma, 76.6 µM in the assay with SN12C renal and 23.4 µM in the assay with U251 CNS.
Take `Cn1c2c(c3ccccc31)CCN1C[C@@H]3CCCC[C@H]3C[C@@H]21`: the GI50 with 786-0 renal was 3.58 µM; with COLO 205 colon it was 2.04 µM; in the assay with HCC-2998 colon, 2.1 µM; in the assay with HCT-116 colon, 3.19 µM; in the assay with HCT-15 colon, 2.55 µM; with NCI-H460 lung, 3.34 µM. The GI50 in the assay on SF-268 CNS was 3.22 µM; with SK-MEL-28 melanoma it was 6.03 µM; in the assay with SN12C renal, 3.82 µM; with U251 CNS, 2.51 µM. Further, the TGI with 786-0 renal is 17.5 µM; in the assay on COLO 205 colon, 4.68 µM; with HCC-2998 colon, 5.48 µM; with HCT-116 colon, more than 31.2 µM; in the assay on HCT-15 colon, more than 100 µM; in the assay on NCI-H460 lung it was more than 36.1 µM. Further, the TGI is more than 40.2 µM in the assay with SF-268 CNS, more than 100 µM with SK-MEL-28 melanoma, more than 100 µM with SN12C renal and more than 100 µM with U251 CNS.
Consider `CC[C@]12C=CCN3CC[C@]4(C(=C(C(=O)OC)C1)Nc1cc5c(cc14)[C@@H]1[C@H](O5)[C@@H](O)[C@@]4(CC)CC(C(=O)OC)=C5Nc6ccccc6[C@@]56CCN1[C@@H]46)[C@@H]32`, for which the GI50 with 786-0 renal is 0.252 µM and 0.383 µM; with COLO 205 colon it was 0.0695 µM; in the assay on HCC-2998 colon it was 0.0292 µM and 0.0366 µM; with HCT-116 colon, 0.216 µM and 0.341 µM; in the assay with HCT-15 colon, 0.0964 µM and 0.26 µM; in the assay on NCI-H460 lung it was 1.05 µM and 1.13 µM. Moreover, the GI50 in the assay on SF-268 CNS is 1.15 µM and 1.2 µM; in the assay with SK-MEL-28 melanoma it was 1.07 µM and 1.32 µM; in the assay on SN12C renal it was 0.464 µM and 0.499 µM; in the assay with U251 CNS, 0.467 µM and 0.318 µM. The TGI with 786-0 renal is 10 µM and 33.6 µM; in the assay on COLO 205 colon it was 2.78 µM; with HCC-2998 colon, 2.63 µM and 1.26 µM; in the assay on HCT-116 colon, 2.59 µM and 1.65 µM; in the assay on HCT-15 colon, 3.37 µM and 1.42 µM; in the assay on NCI-H460 lung it was 7.05 µM and 11.9 µM. For the same compound, the TGI in the assay with SF-268 CNS is 19.7 µM and 54.5 µM; in the assay on SK-MEL-28 melanoma it was 9.29 µM and 24.2 µM; in the assay with SN12C renal it was 25 µM and 33.5 µM.
As to `Cc1cc(S(=O)(=O)Nc2nc3ccccc3c(=O)n2Cc2ccco2)c(S)cc1Cl`, the GI50 in the assay on 786-0 renal was 36.1 µM; with COLO 205 colon it was more than 100 µM; in the assay on HCC-2998 colon, 38.6 µM; in the assay on HCT-116 colon it was 42.3 µM; in the assay with HCT-15 colon, 55 µM; in the assay on NCI-H460 lung it was 33.3 µM. For the same compound, the GI50 was 40.6 µM in the assay with SF-268 CNS, 34.8 µM in the assay on SK-MEL-28 melanoma, 29.8 µM in the assay with SN12C renal and 45.8 µM in the assay on U251 CNS. Further, the TGI in the assay with 786-0 renal, with COLO 205 colon, with HCC-2998 colon, with HCT-116 colon, in the assay on HCT-15 colon and with NCI-H460 lung was more than 100 µM throughout. Also, the TGI is more than 100 µM with SF-268 CNS, more than 100 µM with SK-MEL-28 melanoma, 88.8 µM with SN12C renal and more than 100 µM in the assay on U251 CNS.
Regarding `CCOC(=O)C#Cc1cccc(C#CC(=O)OCC)c1`, the TGI amounted to 8.85 µM in the assay with 786-0 renal; 9.92 µM with COLO 205 colon; 2.1 µM in the assay on HCC-2998 colon; 7.1 µM in the assay on HCT-116 colon; 16.1 µM in the assay with HCT-15 colon; 39.2 µM in the assay with NCI-H460 lung. The TGI in the assay with SF-268 CNS was 16.7 µM; in the assay with SK-MEL-28 melanoma, 9.99 µM; in the assay with SN12C renal, 8.21 µM; with U251 CNS, 9.87 µM.
